Experiments:
Paracentrotus lividus [1] = experiment: Antimitotic microtubule destabilizing activity in Paracentrotus lividus L embryos assessed as induction of cleavage alteration
Paracentrotus lividus [2] = experiment: Antimitotic microtubule destabilizing activity in Paracentrotus lividus L embryos assessed as induction of embryo spinning
Paracentrotus lividus [3] = experiment: Antimitotic microtubule destabilizing activity in Paracentrotus lividus L embryos assessed as induction of cleavage arrest
[4] = Cytotoxicity against human NCI60 cells assessed as mean cell growth at 10 uM; type: functional
[5] = Cytotoxicity against human NCI60 cells; type: functional

Compound | EC (Paracentrotus lividus [1]) [µM] | EC (Paracentrotus lividus [2]) [µM] | EC (Paracentrotus lividus [3]) [µM] | Activity [4] [%] | GI50 [5] [µM]
COc1ccc2c(c1)OC(N)=C(C#N)[C@H]2c1cc(OC)c(OC)c(OC)c1 | 2 | > 5 | > 4 | – | –
COc1ccc(OC)c(C2C(C#N)=C(N)Oc3cc(O)ccc32)c1 (centres undefined) | 1 | > 4 | > 4 | 94.5 | –
N#CC1=C(N)Oc2cc(O)ccc2C1c1cc2c(c([N+](=O)[O-])c1)OCCO2 (centres undefined) | 4 | > 4 | > 4 | – | 99.3
COc1ccc(C2C(C#N)=C(N)Oc3cc(O)ccc32)cc1 (centres undefined) | > 4 | > 4 | > 4 | 96 | –
CCOc1ccccc1C1C(C#N)=C(N)Oc2cc(OC)ccc21 (centres undefined) | 0.02 | 0.5 | 0.2 | – | –
COc1cc(C2C(C#N)=C(N)Oc3cc4c(cc32)OCO4)cc2c1OCO2 (centres undefined) | 0.005 | 0.2 | 0.05 | – | 0.389
COc1ccc(C2C(C#N)=C(N)Oc3cc(OC)ccc32)cc1 (centres undefined) | 0.1 | > 5 | 1 | – | –
COc1cccc([C@@H]2C(C#N)=C(N)Oc3cc(OC)ccc32)c1 | 0.05 | 4 | 0.5 | – | –

Now from value to compound, other results behind:

EC (Paracentrotus lividus [1]) [µM] | EC (Paracentrotus lividus [2]) [µM] | EC (Paracentrotus lividus [3]) [µM] | Compound | Activity [4] [%] | GI50 [5] [µM]
– | > 4 | > 4 | COc1cc(OC)c(C2C(C#N)=C(N)Oc3cc(O)ccc32)c(OC)c1 (centres undefined) | – | –
0.005 | 0.05 | 0.02 | COc1ccc2c(c1)OC(N)=C(C#N)C2c1cc(OC)c2c(c1)OCO2 (centres undefined) | – | –
1 | > 5 | 4 | COc1cc(C2C(C#N)=C(N)Oc3cc(O)ccc32)cc2c1OCCO2 (centres undefined) | – | –
0.1 | > 5 | 2 | COc1cccc(C2C(C#N)=C(N)Oc3cc(O)ccc32)c1 (centres undefined) | – | –
4 | > 4 | > 4 | N#CC1=C(N)Oc2cc(O)ccc2C1c1ccccc1I (centres undefined) | – | –
4 | > 4 | > 4 | COc1c(C2C(C#N)=C(N)Oc3cc(O)ccc32)cc2c(c1OC)OCO2 (centres undefined) | – | –
> 4 | > 4 | > 4 | COc1cc(C2C(C#N)=C(N)Oc3cc(O)ccc32)c(OC)c(OC)c1OC (centres undefined) | – | –
0.1 | 4 | 1 | COc1ccc2c(c1)OC(N)=C(C#N)C2c1cc(OC)c2c(c1OC)OCO2 (centres undefined) | – | –
0.1 | 4 | 1 | COc1ccc(C2C(C#N)=C(N)Oc3cc(OC)ccc32)c(OC)c1 (centres undefined) | – | –

— ChEMBL document CHEMBL3352739, “Comparative in vivo evaluation of polyalkoxy substituted 4H-chromenes and oxa-podophyllotoxins as microtubule destabilizing agents in the phenotypic sea urchin embryo assay” (2014)
